According to PubChem BioAssay AID2060896 (Molecular Pharmacology Branch, DTP, NCI, 2025):
pIC50: −log10 of the molar value.

Test system: 941728-121-R-J1-PDC complex spheroid viability
Assay: Anticancer human tumor 941728-121-R-J1-PDC patient-derived lung adenocarcinoma cell line growth inhibition [RAS]
Conditions: for pIC50: curve of first compound; for viability, T/C: stronger effect = lower value
Procedure, shortened: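 Multi-cell-type spheroids: tumor cells plus HUVEC endothelial cells and mesenchymal stem cells. RAS-pathway inhibitors were combined with targeted agents, each dosed in half-log steps down from clinical Cmax, or from 10 microM when Cmax was unknown.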

[1] = second compound 0.00316 µM, first compound 0.000949 µM
[2] = second compound 0.00316 µM, first compound 0.003 µM
[3] = second compound 0.00316 µM, first compound 0.00949 µM
[4] = second compound 0.00316 µM, first compound 0.03 µM
[5] = second compound 0.00316 µM, first compound 0.0949 µM
[6] = second compound 0.00316 µM, first compound 0.3 µM
[7] = second compound 0.01 µM, first compound 0.000949 µM
[8] = second compound 0.01 µM, first compound 0.003 µM
[9] = second compound 0.01 µM, first compound 0.00949 µM
[10] = second compound 0.01 µM, first compound 0.03 µM
[11] = second compound 0.01 µM, first compound 0.0949 µM
[12] = second compound 0.01 µM, first compound 0.3 µM
[13] = second compound 0.0316 µM, first compound 0.000949 µM
[14] = second compound 0.0316 µM, first compound 0.003 µM
[15] = second compound 0.0316 µM, first compound 0.00949 µM
[16] = second compound 0.0316 µM, first compound 0.03 µM
[17] = second compound 0.0316 µM, first compound 0.0949 µM
[18] = second compound 0.0316 µM, first compound 0.3 µM
[19] = second compound 0.1 µM, first compound 0.000949 µM
[20] = second compound 0.1 µM, first compound 0.003 µM
[21] = second compound 0.1 µM, first compound 0.00949 µM
[22] = second compound 0.1 µM, first compound 0.03 µM
[23] = second compound 0.1 µM, first compound 0.0949 µM
[24] = second compound 0.1 µM, first compound 0.3 µM
[25] = second compound 0.316 µM, first compound 0.000949 µM
[26] = second compound 0.316 µM, first compound 0.003 µM
[27] = second compound 0.316 µM, first compound 0.00949 µM
[28] = second compound 0.316 µM, first compound 0.03 µM
[29] = second compound 0.316 µM, first compound 0.0949 µM
[30] = second compound 0.316 µM, first compound 0.3 µM
[31] = second compound 1 µM, first compound 0.000949 µM
[32] = second compound 1 µM, first compound 0.003 µM
[33] = second compound 1 µM, first compound 0.00949 µM
[34] = second compound 1 µM, first compound 0.03 µM
[35] = second compound 1 µM, first compound 0.0949 µM
[36] = second compound 1 µM, first compound 0.3 µM
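Note: spheroids exposed to compounds for 7 days before readout.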
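Throughout, for viability, T/C: 100% = DMSO vehicle control viability.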

`CC1(C)CCC(Nc2ncc(C(F)(F)F)c(-c3c[nH]c4c(P(C)(C)=O)c(C#N)ccc34)n2)CN1` (stereo unspecified) + C=CC(=O)N1CCN(c2nc(OCC3CCCN3C)nc3c(F)c(-c4nc(N)cc(C)c4C(F)(F)F)c(Cl)cc23)C(C)C1 showed a pIC50 (second compound 0.00316 µM) greater than 9.02, a pIC50 (second compound 0.01 µM) greater than 9.02 and a pIC50 (second compound 0.0316 µM) greater than 9.02. For the same compound, the pIC50 (second compound 0.1 µM) was greater than 9.02, the pIC50 (second compound 0.316 µM) was greater than 9.02 and the pIC50 (second compound 1 µM) was greater than 9.02. For the same compound, the viability, T/C [1] was 17.1%, the viability, T/C [2] was 18.1% and the viability, T/C [3] was 19.7%. It also gave a viability, T/C [4] of 19%, a viability, T/C [5] of 20.5% and a viability, T/C [6] of 20.9%. It also gave a viability, T/C [7] of 18.9%, a viability, T/C [8] of 16.2% and a viability, T/C [9] of 17.9%. It also gave a viability, T/C [10] of 17.8%, a viability, T/C [11] of 17.9% and a viability, T/C [12] of 16.8%. For the same compound, the viability, T/C [13] was 14.8%, the viability, T/C [14] was 16.8% and the viability, T/C [15] was 17.8%. It also gave a viability, T/C [16] of 17.6%, a viability, T/C [17] of 17.7% and a viability, T/C [18] of 17.7%. For the same compound, the viability, T/C [19] was 15.4%, the viability, T/C [20] was 16.9% and the viability, T/C [21] was 17%. It also gave a viability, T/C [22] of 17.2%, a viability, T/C [23] of 17.8% and a viability, T/C [24] of 19.1%. For the same compound, the viability, T/C [25] was 15.3%, the viability, T/C [26] was 15.8% and the viability, T/C [27] was 15.8%. For the same compound, the viability, T/C [28] was 17.7%, the viability, T/C [29] was 19.3% and the viability, T/C [30] was 18.1%. For the same compound, the viability, T/C [31] was 16.6%, the viability, T/C [32] was 16.6% and the viability, T/C [33] was 18.8%. It also gave a viability, T/C [34] of 19.3%, a viability, T/C [35] of 18.6% and a viability, T/C [36] of 21%.
For `CCc1c2c(nc3ccc(O)cc13)-c1cc3c(c(=O)n1C2)COC(=O)[C@]3(O)CC` + C=CC(=O)N1CCN(c2nc(OCC3CCCN3C)nc3c(F)c(-c4nc(N)cc(C)c4C(F)(F)F)c(Cl)cc23)C(C)C1, the pIC50 (second compound 0.00316 µM) was greater than 9.02, the pIC50 (second compound 0.01 µM) was greater than 9.02 and the pIC50 (second compound 0.0316 µM) was greater than 9.02. It also gave a pIC50 (second compound 0.1 µM) greater than 9.02, a pIC50 (second compound 0.316 µM) greater than 9.02 and a pIC50 (second compound 1 µM) greater than 9.02. For the same compound, the viability, T/C [1] was 21.6%, the viability, T/C [2] was 18.7% and the viability, T/C [3] was 14.7%. The viability, T/C [4] was 13.7%, the viability, T/C [5] was 12.1% and the viability, T/C [6] was 8.13%. The viability, T/C [7] was 18.9%, the viability, T/C [8] was 15.6% and the viability, T/C [9] was 20.6%. It also gave a viability, T/C [10] of 13.1%, a viability, T/C [11] of 11.4% and a viability, T/C [12] of 7.95%. For the same compound, the viability, T/C [13] was 18.3%, the viability, T/C [14] was 16.5% and the viability, T/C [15] was 13.8%. It also gave a viability, T/C [16] of 15.1%, a viability, T/C [17] of 11.7% and a viability, T/C [18] of 7.67%. The viability, T/C [19] was 16.3%, the viability, T/C [20] was 17% and the viability, T/C [21] was 15.1%. It also gave a viability, T/C [22] of 12.6%, a viability, T/C [23] of 12.4% and a viability, T/C [24] of 8.11%. The viability, T/C [25] was 18.3%, the viability, T/C [26] was 15.8% and the viability, T/C [27] was 13.7%. For the same compound, the viability, T/C [28] was 12.2%, the viability, T/C [29] was 11.7% and the viability, T/C [30] was 6.82%. For the same compound, the viability, T/C [31] was 17.1%, the viability, T/C [32] was 15.4% and the viability, T/C [33] was 13.8%. It also gave a viability, T/C [34] of 13.7%, a viability, T/C [35] of 14.8% and a viability, T/C [36] of 7.83%.
`C=CC(=O)Nc1cc(Nc2nccc(-c3cn(C)c4ccccc34)n2)c(OC)cc1N(C)CCN(C)C` + CCn1c(-c2cc(N3CCN(C)CC3)cnc2C(C)OC)c2c3cc(ccc31)-c1csc(n1)CC(NC(=O)C1CC1C)C(=O)N1CCCC(N1)C(=O)OCC(C)(C)C2 gave a pIC50 (second compound 0.000949 µM) greater than 8.50, a pIC50 (second compound 0.003 µM) greater than 8.50 and a pIC50 (second compound 0.00949 µM) greater than 8.50. It also gave a pIC50 (second compound 0.03 µM) greater than 8.50, a pIC50 (second compound 0.0949 µM) greater than 8.50 and a pIC50 (second compound 0.3 µM) greater than 8.50. The viability, T/C (second compound 0.000949 µM, first compound 0.00316 µM) was 29.3%, the viability, T/C (second compound 0.000949 µM, first compound 0.01 µM) was 29.5% and the viability, T/C (second compound 0.000949 µM, first compound 0.0316 µM) was 22.1%. The viability, T/C (second compound 0.000949 µM, first compound 0.1 µM) was 23.4%, the viability, T/C (second compound 0.000949 µM, first compound 0.316 µM) was 24.8% and the viability, T/C (second compound 0.000949 µM, first compound 1 µM) was 14%. For the same compound, the viability, T/C (second compound 0.003 µM, first compound 0.00316 µM) was 25.4%, the viability, T/C (second compound 0.003 µM, first compound 0.01 µM) was 20.8% and the viability, T/C (second compound 0.003 µM, first compound 0.0316 µM) was 17.2%. It also gave a viability, T/C (second compound 0.003 µM, first compound 0.1 µM) of 18.8%, a viability, T/C (second compound 0.003 µM, first compound 0.316 µM) of 15.5% and a viability, T/C (second compound 0.003 µM, first compound 1 µM) of 8.05%. For the same compound, the viability, T/C (second compound 0.00949 µM, first compound 0.00316 µM) was 16.4%, the viability, T/C (second compound 0.00949 µM, first compound 0.01 µM) was 15% and the viability, T/C (second compound 0.00949 µM, first compound 0.0316 µM) was 14.4%. It also gave a viability, T/C (second compound 0.00949 µM, first compound 0.1 µM) of 14.4%, a viability, T/C (second compound 0.00949 µM, first compound 0.316 µM) of 13.7% and a viability, T/C (second compound 0.00949 µM, first compound 1 µM) of 9.82%. It also gave a viability, T/C (second compound 0.03 µM, first compound 0.00316 µM) of 15.8%, a viability, T/C (second compound 0.03 µM, first compound 0.01 µM) of 14.8% and a viability, T/C (second compound 0.03 µM, first compound 0.0316 µM) of 15.7%. For the same compound, the viability, T/C (second compound 0.03 µM, first compound 0.1 µM) was 14.6%, the viability, T/C (second compound 0.03 µM, first compound 0.316 µM) was 10.7% and the viability, T/C (second compound 0.03 µM, first compound 1 µM) was 12%. For the same compound, the viability, T/C (second compound 0.0949 µM, first compound 0.00316 µM) was 12.9%, the viability, T/C (second compound 0.0949 µM, first compound 0.01 µM) was 14.7% and the viability, T/C (second compound 0.0949 µM, first compound 0.0316 µM) was 14.6%. The viability, T/C (second compound 0.0949 µM, first compound 0.1 µM) was 16.5%, the viability, T/C (second compound 0.0949 µM, first compound 0.316 µM) was 10.3% and the viability, T/C (second compound 0.0949 µM, first compound 1 µM) was 13.9%. For the same compound, the viability, T/C (second compound 0.3 µM, first compound 0.00316 µM) was 13.1%, the viability, T/C (second compound 0.3 µM, first compound 0.01 µM) was 14.1% and the viability, T/C (second compound 0.3 µM, first compound 0.0316 µM) was 15%. It also gave a viability, T/C (second compound 0.3 µM, first compound 0.1 µM) of 12.4%, a viability, T/C (second compound 0.3 µM, first compound 0.316 µM) of 10.7% and a viability, T/C (second compound 0.3 µM, first compound 1 µM) of 11.6%.
